Assay results from publication PMC10683025, “Discovery of a Hydroxylamine-Based Brain-Penetrant EGFR Inhibitor for Metastatic Non-Small-Cell Lung Cancer” (Journal of Medicinal Chemistry, 2023).
Like-named read-outs stand apart in the source and are kept apart here. Values belong to the compound of their own block, whether it stands above or below them.

Tests used:
TA100 = system: TA100; design: species or system Salmonella;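 for Count (# of wells): Revertant-positive wells among 48 replicate wells per concentration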
Description: (§1) Compounds were assessed for mutagenicity at the Eurofins Panlabs in 384-well plates using four Salmonella strains: TA98, to probe for frameshift mutation (with quercetin as control), TA100 and TA1535, to probe for base pair insertions/deletions (with streptozotocin as control), and TA1537, to probe for frameshift mutations (with aminacridine as control) as previously described.[78] […] A concurrent bacterial cytotoxicity assay was run at 0.6, 1.2, 2.5, 5, 10, 25, 50, and 100 μM to rule out false negatives. Bacterial cytotoxicity was expressed as percent of control growth (OD650). Compounds with growth of less than 60% control were flagged and considered bacterial cytotoxic. […] Significances of the positive counts between the treatment and control were determined using a one-tailed Fisher’s exact test.

TA1537 = system: TA1537; design: species or system Salmonella;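 for Count (# of wells): Revertant-positive wells among 48 replicate wells per concentration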
Description: as §1

TA98 = system: TA98; design: species or system Salmonella;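 for Count (# of wells): Revertant-positive wells among 48 replicate wells per concentration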
Description: as §1

TA1535 = system: TA1535; design: species or system Salmonella
Caco-2 permeability = type: in vitro ADME; settings: human; for efflux ratio at 2 h, 5 μM / Papp A→B at 2 h, 5 μM / Papp B→A at 2 h, 5 μM: Caco-2; for recovery at 2 h, 5 μM: Caco-2, Caco-2
Description: (§3) A 96-well HTS Transwell plate (Corning) was used for Caco-2 and MDCKII-MDR1 cell seeding. […] Plates were incubated at 37 °C for 2 h, and samples (50 μL) were taken at the beginning and end of the incubation in both the donor and acceptor wells with the assay run in duplicate (n = 2). Samples were analyzed by LC-MS/MS.
(§4) The efflux ratio was determined by using the following equation: [drawing 4] where Papp (B–A) indicates the apparent permeability in the basolateral to apical direction and Papp (A–B) indicates the apparent permeability in the apical to basolateral direction.

MDCKII-MDR1 permeability = type: in vitro ADME, canine; settings: dog, MDCK-MDR1, MDCKII-MDR1
Description: as §3, §4

MDR1 = experiment: MDCKII-MDR1 permeability; type: in vitro ADME, canine; settings: dog, MDCK-MDR1
Description: as §3, §4

Plasma stability [1] = type: in vitro ADME, Sprague-Dawley rat; settings: rat plasma
Description: (§2) Assessment of compounds to determine stability in incubations containing plasma of human (Pharmaron) and Sprague-Dawley rat (IPHASE) was performed by Pharmaron, Inc. using the compound […] approach. Compounds were assessed in duplicate (n = 2) and incubated in plasma at 5 μM and samples (50 μL) were taken at 0, 15, 30, 60, and 120 min time points for analysis by LC-MS/MS. Peak area ratios were determined from the extracted ion chromatogram and the percent compound remaining at each time point was calculated by the following equation: [drawing 2] where peak area ratiot min is the peak area ratio of control and test compound at t min and peak area ratio0 min is the peak area ratio of control and test compound at zero time point.

Plasma stability [2] = type: in vitro ADME, human; settings: human plasma
Description: as §2

Structure (SMILES): CN(N=O)C(=O)N[C@H]1C(O)O[C@H](CO)[C@@H](O)[C@@H]1O (mixture of isomers) [Streptozotocin, reference compound]
- Count (# of wells) (TA100; TA100+S9, 2.5E-06 M): 39
- Count (# of wells) (TA100; TA100-S9, 2.5E-06 M): 42
- Count (# of wells) (TA1537; TA1537+S9, 2.5E-06 M): 7
- Positive Significance (- to +++) (TA1537; TA1537+S9, 2.5E-06 M): -
- Count (# of wells) (TA1537; TA1537-S9, 2.5E-06 M): 2
- Positive Significance (- to +++) (TA1537; TA1537-S9, 2.5E-06 M): -
- Count (# of wells) (TA98; TA98+S9, 2.5E-06 M): 2
- Positive Significance (- to +++) (TA98; TA98+S9, 2.5E-06 M): -
- Count (# of wells) (TA98; TA98-S9, 2.5E-06 M): 1
- Positive Significance (- to +++) (TA98; TA98-S9, 2.5E-06 M): -
- Count (# of wells) (TA1535; TA1535+S9, 2.5E-06 M): 48
- Count (# of wells) (TA1535; TA1535-S9, 2.5E-06 M): 2
- Positive Significance (- to +++) (TA1535; TA1535-S9, 2.5E-06 M): -

Structure (SMILES): Nc1ccc2cc3ccccc3cc2c1 [2-Aminoanthracene, reference compound]
- Count (# of wells) (TA100; TA100+S9, 1.0E-06 M): 21
- Count (# of wells) (TA100; TA100-S9, 5.0E-06 M): 4
- Positive Significance (- to +++) (TA100; TA100-S9, 5.0E-06 M): -
- Count (# of wells) (TA1537; TA1537+S9, 1.0E-05 M): 14
- Positive Significance (- to +++) (TA1537; TA1537+S9, 1.0E-05 M): ++ (strong positive, if P < 0.01 (denoted as “++”))
- Count (# of wells) (TA1537; TA1537-S9, 5.0E-06 M): 1
- Positive Significance (- to +++) (TA1537; TA1537-S9, 5.0E-06 M): -
- Count (# of wells) (TA98; TA98+S9, 2.0E-06 M): 47
- Count (# of wells) (TA98; TA98-S9, 5.0E-06 M): 1
- Positive Significance (- to +++) (TA98; TA98-S9, 5.0E-06 M): -
- Count (# of wells) (TA1535; TA1535+S9, 5.0E-06 M): 15

Structure (SMILES): Nc1c2ccccc2nc2ccccc12 [9-Aminoacridine, reference compound]
- Count (# of wells) (TA100; TA100+S9, 1.0E-05 M): 3
- Positive Significance (- to +++) (TA100; TA100+S9, 1.0E-05 M): -
- Count (# of wells) (TA100; TA100-S9, 1.0E-05 M): 2
- Positive Significance (- to +++) (TA100; TA100-S9, 1.0E-05 M): -
- Count (# of wells) (TA1537; TA1537+S9, 1.0E-05 M): 17
- Count (# of wells) (TA1537; TA1537-S9, 1.0E-05 M): 11
- Positive Significance (- to +++) (TA1537; TA1537-S9, 1.0E-05 M): ++ (strong positive, if P < 0.01 (denoted as “++”))
- Count (# of wells) (TA98; TA98+S9, 1.0E-05 M): 1
- Positive Significance (- to +++) (TA98; TA98+S9, 1.0E-05 M): -
- Count (# of wells) (TA98; TA98-S9, 1.0E-05 M): 0
- Positive Significance (- to +++) (TA98; TA98-S9, 1.0E-05 M): -
- Count (# of wells) (TA1535; TA1535+S9, 1.0E-05 M): 0
- Positive Significance (- to +++) (TA1535; TA1535+S9, 1.0E-05 M): -
- Count (# of wells) (TA1535; TA1535-S9, 1.0E-05 M): 1
- Positive Significance (- to +++) (TA1535; TA1535-S9, 1.0E-05 M): -

- efflux ratio at 2 h, 5 μM (Caco-2 permeability): 50.1
- recovery at 2 h, 5 μM (Caco-2 permeability; read-out: Recovery% (AP-BL)): 108%
- recovery at 2 h, 5 μM (Caco-2 permeability; read-out: Recovery% (BL-AP)): 96.2%
- Papp A→B at 2 h, 5 μM (Caco-2 permeability): 0.27 ×10⁻⁶ cm/s
- Papp B→A at 2 h, 5 μM (Caco-2 permeability): 13.4 ×10⁻⁶ cm/s
- recovery at 2 h, 1 μM (MDCKII-MDR1 permeability; read-out: Recovery% (AP-BL)): 98.8%
- recovery at 2 h, 1 μM (MDCKII-MDR1 permeability; read-out: Recovery% (BL-AP)): 100%
- efflux ratio at 2 h, 1 μM (MDR1): 40.6
- Papp A→B at 2 h, 1 μM (MDR1): 0.25 ×10⁻⁶ cm/s
- Papp B→A at 2 h, 1 μM (MDR1): 10.2 ×10⁻⁶ cm/s
Structure (SMILES): C[C@H]1O[C@@H](O[C@H]2[C@@H](O)C[C@H](O[C@H]3[C@@H](O)C[C@H](O[C@H]4CC[C@@]5(C)[C@H](CC[C@@H]6[C@@H]5C[C@@H](O)[C@]5(C)[C@@H](C7=CC(=O)OC7)CC[C@]65O)C4)O[C@@H]3C)O[C@@H]2C)C[C@H](O)[C@@H]1O [Digoxin, reference compound]

- efflux ratio at 2 h, 5 μM (Caco-2 permeability): 0.89
- recovery at 2 h, 5 μM (Caco-2 permeability; read-out: Recovery% (AP-BL)): 97.4%
- recovery at 2 h, 5 μM (Caco-2 permeability; read-out: Recovery% (BL-AP)): 98.4%
- Papp A→B at 2 h, 5 μM (Caco-2 permeability): 24.9 ×10⁻⁶ cm/s
- Papp B→A at 2 h, 5 μM (Caco-2 permeability): 22.2 ×10⁻⁶ cm/s
- recovery at 2 h, 1 μM (MDCKII-MDR1 permeability; read-out: Recovery% (AP-BL)): 105%
- recovery at 2 h, 1 μM (MDCKII-MDR1 permeability; read-out: Recovery% (BL-AP)): 98.4%
- efflux ratio at 2 h, 1 μM (MDR1): 0.81
- Papp A→B at 2 h, 1 μM (MDR1): 25.9 ×10⁻⁶ cm/s
- Papp B→A at 2 h, 1 μM (MDR1): 20.9 ×10⁻⁶ cm/s
Structure (SMILES): COCCc1ccc(OCC(O)CNC(C)C)cc1 (centres unmarked) [Metoprolol, reference compound]

Structure (SMILES): CC[C@H](C)C(=O)O[C@H]1C[C@@H](C)C=C2C=C[C@H](C)[C@H](CC[C@@H]3C[C@@H](O)CC(=O)O3)[C@H]21 [Mevinolin, reference compound]
- half-life at 5 μM (Plasma stability [1]; Sprague-Dawley, ∞ = no degradation): 2.49 min
- Remaining Percentages (Plasma stability [1]; 15 min): 1.54%
- Remaining Percentages (Plasma stability [1]; 30 min): 0.42%
- Remaining Percentages (Plasma stability [1]; 60 min): 0.30%
- Remaining Percentages (Plasma stability [1]; 120 min): 0.27%

- Remaining Percentages (Plasma stability [2]; 15 min): 69.10%
- Remaining Percentages (Plasma stability [2]; 30 min): 48.79%
- Remaining Percentages (Plasma stability [2]; 60 min): 22.07%
- Remaining Percentages (Plasma stability [2]; 120 min): 4.85%
- half-life at 5 μM (Plasma stability [2]; ∞ = no degradation): 27.6 min
Structure (SMILES): CC(C)[N+](C)(CCOC(=O)C1c2ccccc2Oc2ccccc21)C(C)C [Propantheline, reference compound]

Structure (SMILES): O=c1c(O)c(-c2ccc(O)c(O)c2)oc2cc(O)cc(O)c12 [Quercetin, reference compound]
- Count (# of wells) (TA100; TA100+S9, 1.0E-05 M): 5
- Positive Significance (- to +++) (TA100; TA100+S9, 1.0E-05 M): -
- Count (# of wells) (TA100; TA100-S9, 1.0E-05 M): 1
- Count (# of wells) (TA1537; TA1537+S9, 3.0E-05 M): 6
- Positive Significance (- to +++) (TA1537; TA1537+S9, 3.0E-05 M): -
- Count (# of wells) (TA1537; TA1537-S9, 1.0E-05 M): 1
- Positive Significance (- to +++) (TA1537; TA1537-S9, 1.0E-05 M): -
- Count (# of wells) (TA98; TA98+S9, 1.0E-05 M): 30
- Count (# of wells) (TA98; TA98-S9, 1.0E-05 M): 12
- Count (# of wells) (TA1535; TA1535+S9, 1.0E-05 M): 4
- Positive Significance (- to +++) (TA1535; TA1535+S9, 1.0E-05 M): -
